# According to PubChem BioAssay (NCI):
# “And” between values parts separate entries of the source, which are not always exact repeats. Equal values may be shown once.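 These data come from cells grown in 96-well plates and exposed to compound for 48 hours at five concentrations. The concentration for 50% growth inhibition is given as GI50. TGI marks complete inhibition of growth.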
# Key:
# Experiment in all cases: NCI tumour cell line growth inhibition, 48 h
# 786-0 renal = system: 786-0 renal
# A498 renal = system: A498 renal
# A549 NSCLC = system: A549 NSCLC
# ACHN renal = system: ACHN renal
# CCRF-CEM leukemia = system: CCRF-CEM leukemia
# HCC-2998 colon = system: HCC-2998 colon
# M14 melanoma = system: M14 melanoma
# NCI-H226 lung = system: NCI-H226 lung
# NCI-H460 lung = system: NCI-H460 lung
# OVCAR-8 ovarian = system: OVCAR-8 ovarian
# RXF 393 renal = system: RXF 393 renal
# SF-268 CNS = system: SF-268 CNS
# SF-295 CNS = system: SF-295 CNS
# T-47D breast = system: T-47D breast
# TK-10 renal = system: TK-10 renal
# UACC-257 melanoma = system: UACC-257 melanoma
# UACC-62 melanoma = system: UACC-62 melanoma
# UO-31 renal = system: UO-31 renal
Structure (SMILES),TGI (786-0 renal),TGI (A498 renal),TGI (A549 NSCLC),TGI (ACHN renal),TGI (CCRF-CEM leukemia),TGI (HCC-2998 colon),TGI (M14 melanoma),TGI (NCI-H226 lung),TGI (NCI-H460 lung),TGI (OVCAR-8 ovarian),TGI (RXF 393 renal),TGI (SF-268 CNS),TGI (SF-295 CNS),TGI (T-47D breast),TGI (TK-10 renal),TGI (UACC-257 melanoma),TGI (UACC-62 melanoma),TGI (UO-31 renal),GI50 (SF-295 CNS)
NCC(=O)C(O)C(O)C(O)CO (centres undefined),> 100 µM,> 100 µM,> 100 µM,> 100 µM,> 100 µM,> 100 µM,> 100 µM,> 100 µM,> 100 µM,> 100 µM,> 100 µM,> 100 µM,> 100 µM,> 100 µM,> 100 µM,> 100 µM,> 100 µM,> 100 µM,–
COC(=O)c1cc(C)ccc1/C=C1\Cc2cc(C)c(C)cc2C1=O,> 100 µM,> 100 µM,> 100 µM,> 100 µM,–,> 100 µM,> 100 µM,> 100 µM,> 100 µM,> 100 µM,> 100 µM,> 100 µM,> 100 µM,> 100 µM,> 100 µM,> 100 µM,> 100 µM,> 100 µM,–
CON(C)C(=O)C(Cc1ccccc1)NC(=O)OC(C)(C)C (centres undefined),> 100 µM,> 100 µM,> 100 µM,> 100 µM,> 100 µM,> 100 µM,> 100 µM,> 100 µM,> 100 µM,> 100 µM,> 100 µM,> 100 µM,> 100 µM,> 100 µM,> 100 µM,> 100 µM,> 100 µM,> 100 µM,–
O=C(NNC(=S)Nc1ccccc1)C12CC3CC(CC(C3)C1)C2,> 100 µM,> 91.4 µM,> 100 µM,> 100 µM,> 53.5 µM,> 95.7 µM,67 µM,> 86.6 µM,> 100 µM,> 100 µM,> 100 µM,> 100 µM,> 100 µM,> 100 µM,> 100 µM,> 100 µM,> 100 µM,> 100 µM,–
COC(=O)c1cc(C#N)[nH]c1-c1ccsc1,> 100 µM,> 100 µM,> 100 µM,> 100 µM,> 100 µM,> 100 µM,> 100 µM,> 100 µM,–,> 100 µM,> 100 µM,> 100 µM,> 100 µM,> 100 µM,> 100 µM,> 100 µM,> 100 µM,> 100 µM,–
C[C@]12CC[C@@H]3c4ccc(OC(=O)c5ccccc5)cc4CC[C@H]3[C@@H]1CCC2OC(=O)c1cccc2c(=O)c3ccccc3[nH]c12 (some centres undefined),31.7 µM,64 µM,31.5 µM,46.8 µM,> 100 µM,30 µM,37.3 µM,39.6 µM,32.2 µM,35.7 µM,44.6 µM,44.9 µM,37.5 µM,60.2 µM,39.1 µM,36.3 µM,31.3 µM,68.6 µM,–
O=C1O/C(=C\c2ccc(O)c(Br)c2)C(c2ccc(O)cc2)=C1Cl,> 100 µM,77.7 µM,> 100 µM,> 100 µM,41.1 µM,> 100 µM,> 100 µM,–,76.6 µM,> 100 µM,84.4 µM,86.2 µM,> 100 µM,> 100 µM,> 100 µM,> 100 µM,> 100 µM,> 100 µM,–
CCCSc1cc(Cl)c(C)cc1S(=O)(=O)n1cc[nH]c1=O,> 100 µM,> 100 µM,> 100 µM,> 100 µM,> 100 µM,> 100 µM,> 100 µM,> 100 µM,> 100 µM,> 100 µM,> 100 µM,> 100 µM,> 100 µM,> 100 µM,> 100 µM,> 100 µM,> 100 µM,> 100 µM,–
CCOC(=O)C1C(=O)CC(C)(O)C(C(=O)OCC)C1c1ccc(N(C)C)cc1 (centres undefined),> 100 µM,> 100 µM,> 100 µM,> 100 µM,> 100 µM,> 100 µM,–,> 100 µM,> 100 µM,> 100 µM,> 100 µM,> 100 µM,> 100 µM,> 100 µM,> 100 µM,> 100 µM,> 100 µM,> 100 µM,–
CC1OC(OC2C(OC(=O)[C@]34CCC(C)(C)C[C@H]3C3=CC[C@@H]5[C@@]6(C)CC[C@H](OC7OC(C(=O)O)C(O)C(O)C7O)C(C)(C)[C@@H]6CC[C@@]5(C)[C@]3(C)CC4)OCC(O)C2O)C(O)C(O)C1OC1OCC(O)C(O)C1O (some centres undefined),> 100 µM,33.2 µM and 35.7 µM,> 100 µM,–,> 100 µM,33.6 µM and 34 µM,56 µM and 35.6 µM,> 100 µM,> 100 µM,> 100 µM,> 100 µM,> 100 µM,> 100 µM and 58.6 µM,> 100 µM,–,93.1 µM and > 100 µM,86.5 µM and > 100 µM,39.1 µM and 34.8 µM,53.5 µM and 24 µM
CCCCCCCC1c2cc3[nH]c(cc4nc(cc5[nH]c(cc(n2)[C@@]1(C)CC(=O)N(C)C)c(C)c5CCC(=O)O)C(CCC(=O)O)=C4C)cc3C (some centres undefined),83.1 µM,87.2 µM,> 100 µM,35.8 µM,42.6 µM,37.8 µM,29.8 µM,–,43.8 µM,–,33.9 µM,42.9 µM,37.5 µM,> 100 µM,79.3 µM,35.2 µM,33.1 µM,32.5 µM,–
N#Cc1c(C#N)c(-c2cccc([N+](=O)[O-])c2)n(-c2ccccc2)c1N,> 100 µM,> 100 µM,> 100 µM,> 100 µM,> 100 µM,> 100 µM,> 100 µM,86.1 µM,–,> 100 µM,> 100 µM,> 100 µM,> 100 µM,> 100 µM,> 100 µM,> 100 µM,> 100 µM,> 100 µM,–
Cc1cc(S(=O)(=O)Nc2nc(N)n(-c3cnc4ccccc4n3)n2)c(S)cc1Cl,> 100 µM,> 100 µM,> 100 µM,> 100 µM,> 100 µM,> 100 µM,> 100 µM,> 100 µM,> 100 µM,> 100 µM,> 100 µM,> 100 µM,–,> 100 µM,> 100 µM,> 100 µM,> 100 µM,> 100 µM,–
CC(=O)C1(c2ccccc2)CCN(Cn2sc3nc(C)cc(C)c3c2=O)CC1,30.6 µM,> 100 µM,> 100 µM,33.5 µM,> 100 µM,72.7 µM,71.6 µM,> 100 µM,34.1 µM,74.6 µM,39.3 µM,> 100 µM,> 100 µM,> 100 µM,36.1 µM,–,> 100 µM,31.8 µM,–
CCOC(=O)c1sc2nc(SC)nc(Nc3ccc4c(c3)OCCCO4)c2c1N,> 100 µM,> 100 µM,> 100 µM,> 100 µM,> 100 µM,> 100 µM,> 100 µM,> 100 µM,–,> 100 µM,41.7 µM,> 100 µM,53.9 µM,> 100 µM,> 100 µM,> 100 µM,> 100 µM,> 100 µM,–
COc1ccc(C)c2c1N[C@](C)([C@]1(C)Nc3c(OC)ccc(C)c3C1=O)C2=O,> 100 µM,> 100 µM,> 100 µM,> 100 µM,> 100 µM,> 100 µM,> 100 µM,> 100 µM,> 100 µM,> 100 µM,> 100 µM,> 100 µM,> 100 µM,> 100 µM,–,> 100 µM,> 100 µM,> 100 µM,–
COc1ccc(-c2oc3c(CC(=O)O)cccc3c(=O)c2OC)cc1,> 100 µM,> 100 µM,> 100 µM,> 100 µM,> 100 µM,> 100 µM,> 100 µM,> 100 µM,–,> 100 µM,> 100 µM,> 100 µM,> 100 µM,> 100 µM,> 100 µM,> 100 µM,> 100 µM,53.4 µM,–
O=c1c2cccnc2[nH]c2ccc3scnc3c12,> 10 µM,> 10 µM,> 10 µM,> 10 µM,> 10 µM,> 10 µM,> 10 µM,> 10 µM,> 10 µM,> 10 µM,8.71 µM,> 10 µM,> 10 µM,> 10 µM,> 10 µM,> 10 µM,> 10 µM,–,–
C=CCNC1=C2C[C@@H](C)C[C@@H](OC)[C@H](OC(=O)CN(C)C)[C@H](C)/C=C(\C)[C@@H](OC(N)=O)[C@H](OC)/C=C\C=C(/C)C(=O)NC(=CC1=O)C2=O,21 µM,19.4 µM,16.9 µM,20.1 µM,> 59.3 µM,0.284 µM,18.9 µM,–,15.6 µM,63.1 µM,> 41.3 µM,30.5 µM,13.5 µM,> 42.2 µM,16.3 µM,17.2 µM,11.6 µM,24.1 µM,–
CO/C(=N/N1CC1C(F)(F)F)c1ccncc1 (centres undefined),–,> 100 µM,–,–,> 100 µM,–,> 100 µM,> 100 µM,> 100 µM,> 100 µM,> 100 µM,–,> 100 µM,> 100 µM,–,–,> 100 µM,> 100 µM,–
c1ccc(COCC23CCN(Cc4ccccc4)C(CC(OCc4ccccc4)C2)S3)cc1 (centres undefined),> 100 µM,> 100 µM,> 100 µM,> 100 µM,> 100 µM,> 100 µM,> 100 µM,> 100 µM,> 100 µM,> 100 µM,> 100 µM,> 100 µM,> 100 µM,> 100 µM,–,> 100 µM,> 100 µM,> 100 µM,–
CNC(=O)Nc1cc2c3c(c1)CCCN3CCC2,> 10 µM,> 10 µM,> 10 µM,> 10 µM,> 10 µM,> 10 µM,> 10 µM,> 10 µM,> 10 µM,> 10 µM,> 10 µM,> 10 µM,> 10 µM,> 10 µM,> 10 µM,> 10 µM,> 10 µM,–,–
O=C(Sc1c(-c2ccccc2)c(=O)n(-c2ccccc2)c(=S)n1-c1ccccc1)c1ccc(Cl)cc1,> 100 µM,> 100 µM,> 100 µM,> 100 µM,> 100 µM,> 100 µM,> 100 µM,> 100 µM,> 100 µM,> 100 µM,> 100 µM,> 100 µM,> 100 µM,> 100 µM,> 100 µM,> 100 µM,> 100 µM,–,–
CC1(C)C(O)c2ccccc2OC1N1CCN(C2Oc3ccccc3C(O)C2(C)C)CC1 (centres undefined),> 100 µM,> 100 µM,> 100 µM,> 100 µM,> 100 µM,> 100 µM,> 100 µM,> 100 µM,> 100 µM,> 100 µM,> 100 µM,> 100 µM,> 100 µM,> 100 µM,–,> 100 µM,> 100 µM,> 100 µM,–
NC(=O)/N=C(\N)NC(=O)c1ccccc1,> 100 µM,> 100 µM,> 100 µM,> 100 µM,–,> 100 µM,> 100 µM,> 100 µM,> 100 µM,> 100 µM,> 100 µM,–,> 100 µM,> 100 µM,> 100 µM,> 100 µM,> 100 µM,> 100 µM,–
CC(=O)c1ccc(-c2oc(-c3ccccc3)cc2-c2ccc3c(c2)OCO3)s1,> 100 µM,> 100 µM,–,> 100 µM,2.99 µM,> 100 µM,> 100 µM,> 100 µM,> 100 µM,> 100 µM,> 100 µM,> 100 µM,> 100 µM,> 100 µM,> 100 µM,> 100 µM,> 100 µM,> 100 µM,–
